Results as given in US20230226230A1, “THIOPURINE-BASED COMPOUND, COMPOSITION, METHOD OF PREPARATION AND APPLICATIONS” (SEECURE TAIWAN CO., LTD., priority 2021, published 2023).
“Also recorded” adds a separate entry of the source.

Columns and labels:
[1] = tested on: human diffuse large B-cell lymphoma cells; test: In vitro MTT cytotoxicity assay, DLBCL cells; assay type: cell-based; conditions: various human diffuse large B-cell lymphoma cells
Text: (§1) Effect of Compound SC-06-K analogues were selected to test their feasibility against representative mantle cell lines and diffuse large B-cell lymphoma (DLBCL) cell lines using cell viability assays.

[2] = tested on: various human lymphoma cells (mantle cell lines); test: In vitro MTT cytotoxicity assay, human lymphoma cells; assay type: cell-based
Text: as §1

MCF-7 tumors = test: Imaging of nude mice bearing breast tumors, MCF-7 tumor; conditions: MCF-7, at 0.5 hrs
MDA-MB-231 tumors = test: Imaging of nude mice bearing breast tumors, MDA-MB-231 tumor; conditions: MDA-MB-231, at 0.5 hrs

Row | Structure (SMILES) | MTT cytotoxicity [1] | MTT cytotoxicity [2] | Tumor/muscle count density ratios (MCF-7 tumors) | Tumor/muscle count density ratios (MDA-MB-231 tumors)
1 | Cn1cnc([N+](=O)[O-])c1Sc1ncnc2c1ncn2CC(O)CN1CCNCCNCCNCC1 (stereo not shown) [SC-06-K-1, Cyclen-Hydroxypropyl-Azathioprine Conjugate] | inhibited various human diffuse large B-cell lymphoma cells in a dose-dependent manner; also recorded: inhibited cancer cells in a dose-dependent manner | inhibited cancer cells in dose-dependent manners; also recorded: inhibited cancer cells in a dose-dependent manner | – | –
2 | OC[C@H]1OC(O)[C@H]([18F])[C@@H](O)[C@@H]1O (stereo partly shown) [^18F-FDG, 2′-fluorodeoxyglucose] | – | – | 0.28 | 0.25
